The numbers were not newly measured in the CATMoS acute toxicity set (Mansouri et al. 2021), which cites them from elsewhere.

Several values for one entry are separate records, joined by “and”; a condition that tells them apart may be missing. Equal values may be shown once.

The nature of the data set: rat acute oral toxicity. The note with it: in vivo.
In the case of `CCC/C=C/C(OCC)OCC`, the LD50 is 860 mg/kg.
Consider `O=C(O)c1cc(/N=N/c2ccc(S(=O)(=O)Nc3ccccn3)cc2)ccc1O`, for which the LD50 was 15600 mg/kg.
Regarding `CCCCOCC`, the LD50 is 1870 mg/kg.
Regarding `N=C(N)SCc1ccccc1`, the LD50 is 27 mg/kg.
For the compound `CN1CCN(CC(=O)N/N=C/c2ccc([N+](=O)[O-])o2)CC1`, the LD50 was 990 mg/kg and 960 mg/kg and 833 mg/kg.
On to `CON=Cc1ccc(OCC(O)(Cn2cncn2)C(C)(C)C)cc1` (centres undefined), for which the LD50 is 921 mg/kg.
For the compound `C=CCCC=O`, the LD50 was 620 mg/kg.
Consider `Nc1ccc([N+](=O)[O-])cc1Cl`, for which the median lethal dose (LD50) is 6430 mg/kg.
For the compound `CCC(CC)C(=O)NC(=Cc1ccc(OC)cc1)C(=O)O`, the LD50 was 4000 mg/kg.
Take `CC(Cl)(Cl)C(=O)OCCOc1cc(Cl)c(Cl)cc1Cl`: the LD50 was 1000 mg/kg.
For `COP(=S)(OC)SCC(=O)N(c1ccc(Cl)cc1)C(C)C`, the LD50 is 472 mg/kg.
With `CN(CCCn1cnc2c1c(=O)n(C)c(=O)n2C)c1ccccc1`, the LD50 was 1640 mg/kg.
Consider `Nc1cc(Cl)cc(C(=O)O)c1Cl`, for which the LD50 is 3500 mg/kg.
For the compound `CNC(=O)N(C)c1nnc(C(F)(F)F)s1`, the LD50 was 278 mg/kg.
`CC(C)=CCC/C(C)=C\CO`: the LD50 was 4500 mg/kg.
As to `Cc1ccccn1`, the LD50 is 790 mg/kg.
For `Cc1n[nH]c(=O)c2noc(C)c12`, the LD50 is 1000 mg/kg.
As to `CCCOC(C1=NCCN1)c1ccccc1` (centres undefined), the LD50 was 350 mg/kg.
As for `CP(C)(=O)CN1C(=O)CN=C(c2ccccc2)c2cc(Cl)ccc21`, the LD50 is 3110 mg/kg.
For the compound `CC(C)(N)CCCCCCCCCCOCCO`, the LD50 is 1850 mg/kg.
For `Cc1nc2cnc3ccccc3c2s1`, the LD50 was 900 mg/kg and 950 mg/kg.
On to `NC(=O)C(O)(c1ccccc1)c1ccccc1`, for which the LD50 was 1550 mg/kg.
`COc1cc2c(cc1OC)[C@@]13CCN4CC5=CCO[C@H]6CC(=O)N2[C@H]1[C@H]6[C@H]5C[C@H]43`: the 50% lethal dose (LD50) was 1 mg/kg.
Turning to `CC(C)(C)NC[C@H](O)COc1ccccc1C1CCCC1`, the LD50 is 1260 mg/kg.
Regarding `CN1[C@@H]2CC[C@H]1C[C@@H](OC(c1ccccc1)c1ccccc1)C2`, the LD50 was 940 mg/kg.
In the case of `CCOP(=O)(OCC)SC=C(Cl)Cl`, the LD50 is 1.75 mg/kg.
For the compound `CNC(=O)O/N=C(\C)C(C)S(C)(=O)=O` (centres undefined), the LD50 is 458 mg/kg.
Regarding `CCOC(=O)[C@H](CCc1ccccc1)N[C@@H](C)C(=O)N(CC(=O)O)C1Cc2ccccc2C1`, the LD50 was 8260 mg/kg.
On to `CC(C)=CC(N)=O`, for which the LD50 is 3560 mg/kg.
Consider `Cc1nc2ccccc2c(=O)n1-c1ccccc1C(=O)O`, for which the LD50 was 1550 mg/kg.
For `CCCCOC(=O)CCC(=O)OCCCC`, the 50% lethal dose (LD50) is 8000 mg/kg.
On to `CCOC(=O)OC(C)OC(=O)[C@@H]1N2C(=O)[C@@H](NC(=O)[C@H](N)c3ccccc3)[C@H]2SC1(C)C` (some centres undefined), for which the LD50 was 10000 mg/kg.
Turning to `CCNC(C)Cc1cccc(C(F)(F)F)c1` (centres undefined), the LD50 is 130 mg/kg.
As for `N=c1ccn(O)cc1`, the LD50 is 75 mg/kg.
As to `CC(=O)CC1OCC(CCl)O1` (centres undefined), the LD50 is 120 mg/kg.
For the compound `CC(N)CNCCCO` (centres undefined), the LD50 was 5660 mg/kg.
`O=C(CF)NCc1ccc(Br)cc1`: the LD50 is 410 mg/kg.
For the compound `CN1C(=CC=CC2=[N+](C)c3ccccc3C2(C)C)C(C)(C)c2ccccc21`, the 50% lethal dose (LD50) is 18 mg/kg.
As for `CCOc1ccc(NC(=O)C(N=Nc2ccc(-c3ccc(N=NC(C(C)=O)C(=O)Nc4ccc(OCC)cc4)c(Cl)c3)cc2Cl)C(C)=O)cc1` (centres undefined), the LD50 is 2230 mg/kg.
Consider `COC(=O)/C(C)=C/OP(=S)(OC)OC`, for which the median lethal dose (LD50) is 678 mg/kg.
For the compound `NCCOC(=O)c1ccccc1`, the LD50 is 9270 mg/kg.
`C#CCOP(=O)(OCC(C)C)c1ccccc1` (centres undefined): the median lethal dose (LD50) is 600 mg/kg.
In the case of `COP(=O)(OC)Oc1ccc([N+](=O)[O-])cc1`, the LD50 was 3.27 mg/kg.
With `COc1ccc2c(c1)OC(C)(C)C(c1ccccc1)=C2c1ccc(OCCN)cc1`, the LD50 is 1500 mg/kg.
On to `N#CSc1cccc(C(=O)O)c1`, for which the LD50 was 73 mg/kg.
Consider `Cc1onc(-c2c(F)cccc2Cl)c1C(=O)N[C@@H]1C(=O)N2[C@@H]1SC(C)(C)[C@@H]2C(=O)O`, for which the LD50 is 11000 mg/kg.
On to `Cc1cc(C)c(C2=C(OC(=O)C(C)(C)C)c3ccccc3C2=O)c(C)c1`, for which the median lethal dose (LD50) was 8000 mg/kg.
Take `Nc1ccc(N)c2c1C(=O)c1ccccc1C2=O`: the LD50 was 5790 mg/kg.
Turning to `CC(Oc1cccc2ccccc12)C(N)=NO` (centres undefined), the LD50 was 90 mg/kg.
As for `Cc1cn(-c2cc(N)cc(C(F)(F)F)c2)cn1`, the LD50 is 50 mg/kg.
For the compound `CSc1ccc(OP(C)(C)=S)cc1C`, the LD50 was 175 mg/kg.
Consider `O=Cc1cccc(Br)c1`, for which the LD50 was 1130 mg/kg.
On to `C=CC(=O)OCCN(C)C`, for which the LD50 was 455 mg/kg.
On to `CC(C(=O)O)c1ccc(N2Cc3ccccc3C2=O)cc1` (centres undefined), for which the LD50 is 84 mg/kg and 60.8 mg/kg.
Take `CCOP(=S)(OCC)SCC(N)=O`: the LD50 is 10 mg/kg.
With `CCCCCNCCCCC`, the LD50 is 270 mg/kg.
Take `Cc1cc(C(=O)c2ccccc2)ccc1N=Cc1ccc(OCCC(C)C)cc1`: the LD50 was 1500 mg/kg.
Turning to `CCCC[N+](CCCC)(CCCC)CCCC`, the LD50 is 1990 mg/kg.
With `CCCCC(CC)C(O)C(=O)O` (centres undefined), the median lethal dose (LD50) is 3400 mg/kg.
In the case of `CCSP(=O)(OC)OC`, the median lethal dose (LD50) was 13.8 mg/kg.
For `CCOC(=S)SCSSCP(=O)(OCC)OCC`, the LD50 is 14 mg/kg.
With `NC(N)=[Se]`, the LD50 is 50 mg/kg.
Turning to `CCCC(=O)OC/C=C(\C)CCC=C(C)C`, the LD50 was 10700 mg/kg.
As for `O=P(O)(O)Oc1c(Br)cc(Br)cc1-c1cc(Br)cc(Br)c1O`, the LD50 is 142 mg/kg.
For the compound `CCCCCCCCCN(CCCCCCCCC)CCCCCCCCC`, the LD50 is 5600 mg/kg.
For `CC1CC(Cl)CCC1C(=O)OC(C)(C)C` (centres undefined), the LD50 is 4560 mg/kg.
In the case of `Cc1ccc2c(c1)C(N1CCN(C)CC1)=Nc1ccccc1S2`, the LD50 was 934 mg/kg.
Regarding `CC1(C)N=C(N)N=C(N)N1c1ccccc1`, the LD50 was 447 mg/kg.
On to `Cc1cccc(C)c1N/N=C(/N)N(C)C`, for which the LD50 was 980 mg/kg.
For `OC1(c2ccc(Cl)c(Cl)c2)c2ccccc2C2=NCCN21` (centres undefined), the LD50 is 353 mg/kg.
`CN(C)CC/C=C1\c2ccccc2COc2ccccc21`: the LD50 is 147 mg/kg.
As to `CCCC(N)(CCC)CCC`, the LD50 is 135 mg/kg.
For `C[N+]1(CC[N+]2(C)CC3C4C=CC(CC4)C3C2)CCCC1` (centres undefined), the LD50 was 1810 mg/kg.
For the compound `CNCCON=C1c2ccccc2CCc2ccccc21`, the LD50 was 860 mg/kg.
Turning to `C=C(Cl)C(=O)OC`, the LD50 is 68 mg/kg.
Consider `O=C1CCc2cc(C(O)CCCN3CCN(c4cccc(Cl)c4)CC3)ccc2N1` (centres undefined), for which the LD50 was 500 mg/kg.
In the case of `COP(=S)(OC)SSP(=S)(OC)OC`, the LD50 is 10000 mg/kg.
For the compound `CCC(=O)c1ccc(OCC(O)CO)c(OC)c1` (centres undefined), the LD50 was 1640 mg/kg.
`O=[N+]([O-])c1c(Br)ccc2[nH]c(C(F)(F)F)nc12`: the LD50 is 13.5 mg/kg.
Consider `O=C(O)c1ccc2ccccc2c1`, for which the 50% lethal dose (LD50) is 4500 mg/kg.
With `CCOP(=S)(OCC)Oc1cc(C)n(CC)c(=O)c1`, the LD50 is 7070 mg/kg.
As for `C[C@H]1C[C@H]2[C@@H]3CCC4=CC(=O)C=C[C@]4(C)[C@@]3(F)[C@@H](O)C[C@]2(C)[C@@]1(O)C(=O)COP(=O)(O)O`, the LD50 was 1880 mg/kg.
With `CC(C)Oc1cc(-n2nc(C(C)(C)C)oc2=O)c(Cl)cc1Cl`, the LD50 was 3500 mg/kg.
Take `CN(SC(Cl)(Cl)Cl)C(=O)ON=C1SC(=C(C#N)C#N)SC1(C)C`: the median lethal dose (LD50) is 538 mg/kg.
In the case of `CCOc1ccc([N+](=O)[O-])cc1CNCCCl`, the LD50 was 25 mg/kg.
Regarding `CCCCOC(C)COC(=O)COc1cc(Cl)c(Cl)cc1Cl` (centres undefined), the LD50 was 500 mg/kg.
In the case of `CCSC(C)CC1CC(=O)C(C(=O)CC)C(=O)C1` (centres undefined), the LD50 was 170 mg/kg.
In the case of `CC(CN(C)C)C(C)(O)Cc1ccc(Cl)cc1` (centres undefined), the LD50 is 802 mg/kg.
Turning to `CCOc1ccc(C2(c3ccc(OCC)cc3)CC2(Cl)Cl)cc1`, the 50% lethal dose (LD50) is 755 mg/kg.
`O=C1CCCCC1(CCN1CCCCCC1)C(=O)OCc1ccccc1` (centres undefined): the LD50 was 450 mg/kg.
For the compound `CCOP(=S)(OCC)Sc1ccc(C)cc1`, the LD50 is 316 mg/kg.
Consider `CC(CCl)N(C)C` (centres undefined), for which the LD50 was 166 mg/kg.
For the compound `Oc1ccc(-c2ccccc2)cc1CN1CCCCC1`, the LD50 is 30 mg/kg.
On to `CN1CCN(C(=O)Cn2c(=O)sc3ccc(Cl)cc32)CC1`, for which the LD50 was 640 mg/kg.
On to `C=CCC(CC)(CC)C(N)=O`, for which the LD50 is 400 mg/kg.
Take `Cc1cc(C(C)(C)C)c(OB(OC(C)C)OC(C)C)c(C(C)(C)C)c1`: the LD50 was 5200 mg/kg.
On to `c1ccc([Se]c2ccccc2)cc1`, for which the LD50 is 360 mg/kg.
`C=CC(CCC(=O)O)OC(C)=O` (centres undefined): the LD50 is 543 mg/kg.
Turning to `CN1c2ccccc2Sc2ccc(CC(=O)O)cc21`, the LD50 is 495 mg/kg.
As for `CCCCC(CC)C(=O)OCCOCCOCCOC(=O)C(CC)CCCC` (centres undefined), the LD50 was 31000 mg/kg.
Turning to `Cc1cc(C(=O)NNC(C)Cc2ccccc2)no1` (centres undefined), the LD50 was 89 mg/kg.
Turning to `CCCc1ccc2c(c1)OCO2`, the LD50 was 2260 mg/kg.
Take `CC(C)Oc1ccccc1N`: the LD50 was 840 mg/kg.
Consider `COc1ccc(C)cc1N`, for which the LD50 was 1450 mg/kg.
With `CN1CCN(CCCN2c3ccccc3Sc3ccccc32)CC1`, the LD50 was 1380 mg/kg and 500 mg/kg.
In the case of `CCOC(C1=NCC(C)(C)CN1)c1cccc2ccccc12` (centres undefined), the LD50 is 55 mg/kg.
`BrC1(Br)C2CCC1CC2`: the LD50 was 210 mg/kg.
For the compound `O=C1CCc2cc(C(=O)CCN3CCN(c4ccccc4)CC3)ccc2N1`, the LD50 was 500 mg/kg.
As for `CCCCCCCCOC(C)=O`, the LD50 is 3000 mg/kg.
As for `C=CCC1=C(C)[C@H](OC(=O)[C@H]2[C@H](C=C(C)C)C2(C)C)CC1=O` (relative stereo), the LD50 was 1320 mg/kg.
Regarding `CCC12CCC3c4ccc(O)cc4CCC3C1CC(O)C2O` (centres undefined), the LD50 is 5010 mg/kg.
For `CC(=O)CC(c1ccc([N+](=O)[O-])cc1)c1c(O)c2ccccc2oc1=O` (centres undefined), the LD50 was 513 mg/kg.
Turning to `CCC(Br)(CC)C(=O)NC(N)=O`, the LD50 was 316 mg/kg.
In the case of `CCOC(=O)CC(C)(C)C(Cl)C=C(Cl)Cl` (centres undefined), the LD50 was 3170 mg/kg.
As to `Nc1cc(S(=O)(=O)O)cc2c1C(=O)C(=NNc1ccc(NN=C3C(=O)c4c(O)cc(S(=O)(=O)O)cc4C=C3S(=O)(=O)O)cc1)C(S(=O)(=O)O)=C2`, the LD50 was 12000 mg/kg.
Consider `O=C1OC(=O)c2ccc(Cl)c3cccc1c23`, for which the LD50 is 3460 mg/kg.
For `O=[N+]([O-])C1(Br)COCOC1`, the LD50 was 455 mg/kg.
Consider `C=CCN1CCCC1=Nc1ccc(Cl)c(Cl)c1`, for which the LD50 was 1850 mg/kg.
With `CN1CCN(C2=Cc3ccccc3Sc3ccc(Cl)cc32)CC1`, the median lethal dose (LD50) is 115 mg/kg.

As usually defined, the LD50 is the dose at which mortality reaches 50%.
